What was measured:
mouse EP2 receptor = biological target: T1, mouse EP2 receptor (Mus musculus, UniProt Q62053); assay: Measurement of EP2 agonist activity (cAMP concentration) in EP2-CHO cells; assay type: cell-based; conditions: cAMP production, read-out: Agonist activity on various prostanoid receptors: EC50 value, EP2
T1 construct: expressed in transfected cells; host or cells: CHO (EP2-CHO)
Excerpt: (§1) (1-1) Measurement of Agonist Activity on Various Mouse Prostanoid Receptors
(§2) Using CHO cells (FP-CHO, EP2-CHO, EP4-CHO and IP-CHO, respectively) in which various mouse prostanoid receptors were forcibly expressed, respectively, agonist activity of test compounds on various prostanoid receptors was studied employing an intracellular calcium concentration regarding FP, and an intracellular cyclic AMP (hereinafter, abbreviated as cAMP) production amount regarding IP, EP2 and EP4 as an index.
(§3) The test compound and a control substance (PGE2, PGF2α, and iroprost) were dissolved with dimethyl sulfoxide (DMSO) to prepare a 10 mmol/L solution. Regarding the prepared 10 mmol/L solution, upon use, the 10 mmol/L solution was thawed, stepwisely-diluted using DMSO, and diluted with a buffer solution for measurement or a buffer solution for measurement 2, which was subjected to an experiment.
(§4) Cells forcibly expressing various mouse prostanoid receptors were standing-cultured at 37° C. in the presence of 5% CO2 using an α-MEM medium (Sigma) (for culturing FP-CHO, EP2-CHO and EP4-CHO) containing inactivated (56° C., 30 minutes) 9.8 vol % dialysed-FBS (Invitrogen) and penicillin-streptomycin-glutamine (GIBCO-BRL), or nucleic acid-containing α-MEM (Sigma) (for culturing IP-CHO) containing inactivated (56° C., 30 minutes) 9.8 vol % dialysed-FBS (Invitrogen) and penicillin-streptomycin glutamine (Invitrogen). Subculturing was performed by the following method.
(§5) The medium was removed, and washed with a phosphate-buffered physiological saline not containing Ca^2+ and Mg^2+ once. A suitable amount of trypsin-EDTA (Invitrogen) was added, this was incubated at 37° C. for about 3 minutes, cells were peeled, and a medium having a volume which is 10-fold a volume of trypsin-EDTA was added to stop an enzymatic reaction. After cells were recovered (120 g) into a centrifuging tube, and centrifuged at room temperature for 3 minutes, the supernatant was removed. Cells were suspended in a suitable amount of a medium, and seeded in a culturing flask. […]

mouse EP4 receptor = biological target: T2, mouse EP4 receptor (Mus musculus, UniProt P32240); assay: Measurement of EP4 agonist activity (cAMP concentration) in EP4-CHO cells; assay type: cell-based; conditions: cAMP production, read-out: Agonist activity on various prostanoid receptors: EC50 value, EP4
T2 construct: expressed in transfected cells; host or cells: CHO (EP4-CHO)
T2 sequence (P32240 whole entry): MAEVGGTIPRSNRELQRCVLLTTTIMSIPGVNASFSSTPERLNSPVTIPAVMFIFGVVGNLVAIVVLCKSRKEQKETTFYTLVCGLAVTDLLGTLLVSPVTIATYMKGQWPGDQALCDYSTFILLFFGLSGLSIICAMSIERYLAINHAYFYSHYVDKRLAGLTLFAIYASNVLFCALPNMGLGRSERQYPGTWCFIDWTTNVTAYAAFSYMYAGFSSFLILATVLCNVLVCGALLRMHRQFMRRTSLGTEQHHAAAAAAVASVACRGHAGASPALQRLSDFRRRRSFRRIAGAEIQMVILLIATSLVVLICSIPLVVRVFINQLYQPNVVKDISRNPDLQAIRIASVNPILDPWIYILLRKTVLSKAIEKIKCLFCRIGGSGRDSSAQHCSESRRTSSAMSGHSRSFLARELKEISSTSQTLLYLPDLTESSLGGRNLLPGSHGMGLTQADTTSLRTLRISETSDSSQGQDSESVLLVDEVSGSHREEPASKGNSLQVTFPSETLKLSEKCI
Excerpt: as §1, §2, §3, §4, §5

mouse FP receptor = biological target: T3, mouse FP receptor (Mus musculus, UniProt P43117); assay: Measurement of FP agonist activity (intracellular calcium concentration) in FP-CHO cells; assay type: cell-based; conditions: read-out: Agonist activity on various prostanoid receptors: EC50 value, FP
T3 construct: expressed in transfected cells; host or cells: CHO (FP-CHO)
T3 sequence (P43117 whole entry): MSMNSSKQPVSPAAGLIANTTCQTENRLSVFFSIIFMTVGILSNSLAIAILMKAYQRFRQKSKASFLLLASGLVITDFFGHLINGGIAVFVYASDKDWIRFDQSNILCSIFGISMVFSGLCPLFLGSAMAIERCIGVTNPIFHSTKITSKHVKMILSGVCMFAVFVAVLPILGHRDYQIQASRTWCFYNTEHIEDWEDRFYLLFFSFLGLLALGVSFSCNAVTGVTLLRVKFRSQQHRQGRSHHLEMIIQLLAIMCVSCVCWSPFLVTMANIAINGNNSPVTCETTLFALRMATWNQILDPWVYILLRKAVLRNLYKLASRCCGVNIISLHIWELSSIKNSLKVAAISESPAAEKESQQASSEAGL
Excerpt: as §1, §2
as §3, with “experiment. […]” for “experiment.”
The 96-well UV plate was set in a fluorescent spectral photometer (FDSS-3000, Hamamatsu Photonics K.K.), and an intracellular calcium concentration was measured. […]

mouse IP receptor = biological target: T4, mouse IP receptor (Mus musculus, UniProt P43252); assay: Measurement of IP agonist activity (cAMP concentration) in IP-CHO cells; assay type: cell-based; conditions: cAMP production, read-out: Agonist activity on various prostanoid receptors: EC50 value, IP
T4 construct: expressed in transfected cells; host or cells: CHO (IP-CHO)
T4 sequence (P43252 whole entry): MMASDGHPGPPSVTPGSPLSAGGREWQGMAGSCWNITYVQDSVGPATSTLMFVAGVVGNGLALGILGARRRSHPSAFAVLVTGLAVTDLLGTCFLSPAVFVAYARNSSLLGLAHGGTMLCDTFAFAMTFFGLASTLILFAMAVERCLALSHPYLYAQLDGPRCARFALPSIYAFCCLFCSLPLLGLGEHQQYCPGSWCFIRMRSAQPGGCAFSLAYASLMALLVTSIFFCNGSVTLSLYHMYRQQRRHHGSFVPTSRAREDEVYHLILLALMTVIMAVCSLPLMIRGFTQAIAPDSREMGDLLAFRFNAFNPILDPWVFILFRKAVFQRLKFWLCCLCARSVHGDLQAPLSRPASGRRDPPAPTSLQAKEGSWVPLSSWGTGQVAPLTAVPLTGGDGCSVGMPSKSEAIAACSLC
Excerpt: as §1, §2
as §3, with “experiment. […]” for “experiment.”

male dog (TOYO Beagle) = assay: Intraocular pressure lowering action in dog after ocular instillation; assay type: in vivo; conditions: ocular instillation 30 μL, maximum among 2, 4, 6, 8, 24 hours, dose 30 μg/mL Example 16 (1), 50 μg/mL latanoprost
Method: (2-1) Intraocular Pressure Lowering Action
To one eye of a male dog (TOYO Beagle) which had been sufficiently acclimated in advance was ocular-instilled 30 μL of the compound of Example 16 (1) which had been adjusted with a base (containing citrate buffer pH 6.5, 0.5% polysorbate 80, 1% propylene glycol, 0.01% benzalkonium chloride) to 0.003% (w/v), respectively. The other eye was not treated. As a positive control compound, latanoprost which is the known compound was used.
Thereafter, an ocular surface anesthetic (Benoxil eye drops 0.4%, Santen Pharmaceutical Co., Ltd.) was subjected to ocular instillation to locally anesthetize eyes, and an intraocular pressure of each test compound before ocular instillation and after 2, 4, 6, 8, and 24 hours from ocular instillation was measured. An intraocular pressure was measured using a pneumatic applanation flat tonometer (Model 30 Classic, REICHERT). An intraocular pressure lowering rate (%) was calculated by the following equation.

[1] = test system: male rabbit (NewZealandWhite); assay: Assessment of ocular stimulating property (Draize score) in rabbit; assay type: in vivo; conditions: ocular instillation 30 μL, 1000 μg/mL, observed 0 to 8 hours (FIG. 1)
Method: (§6) (2-2) Assessment of Ocular Stimulating Property and Aqueous Humor Protein Concentration
To one eye of a male rabbit (NewZealandWhite, 2.0 to 3.0 kg) was ocular-instilled 30 μL of the compound of Example 16 (1) which had been adjusted to 0.1% (w/v) with a base (containing citrate buffer pH 6.5, 0.5% polysorbate 80, 1% propylene glycol, 0.01% benzalkonium chloride), respectively. Thereafter, an aqueous humor in anterior chamber after 0, 1, 2, 4, 6 and 8 hours from ocular instillation was collected, and a protein concentration in the humor was measured. […]
Observation of the ocular general state was performed after 0, 1, 2, 4, 6 and 8 hours from ocular instillation, and visual remark of cornea, iris, and conjunctiva was observed according to determination criteria of the Draize method. A total of points of the resulting assessment points of each item (=A1×B1×5+A2×5+(A3+B3+C3)×2) was assessed as a Draize score. […]
(§7) Regarding any test compound, a dose of 1000 μg/mL was administered and action of each active body was assessed.

[2] = test system: male rabbit (NewZealandWhite); assay: Aqueous humor protein concentration in rabbit after ocular instillation; assay type: in vivo; conditions: ocular instillation 30 μL, 1000 μg/mL, 0 to 8 hours (FIG. 2)
Method: as §6
To one eye of a male rabbit (NewZealandWhite, 2.0 to 3.0 kg) was ocular-instilled 30 μL of the compound of Example 16 (1) which had been adjusted to 0.1% (w/v) with a base (containing citrate buffer pH 6.5, 0.5% polysorbate 80, 1% propylene glycol, 0.01% benzalkonium chloride), respectively. Thereafter, an aqueous humor in anterior chamber after 0, 1, 2, 4, 6 and 8 hours from ocular instillation was collected, and a protein concentration in the humor was measured. As comparative compounds, the aforementioned methyl ester of the compound of Example 12 described in Patent Literature 2 (i.e. compound of Example 10 described in Patent Literature 2) (hereinafter, abbreviated as Comparative Compound C in some cases) and the aforementioned methyl ester of the Comparative Compound B (i.e. optically active body (2S isomer) of the compound of Example 1 (F) described in Patent Literature 1) (hereinafter, abbreviated as Compound D in some cases) were used.
as §7

[3] = test system: male monkey (crab-eating monkey); assay: Intraocular pressure lowering action in monkey under consciousness; assay type: in vivo; conditions: conscious crab-eating monkey, ocular instillation 30 μL, 10 μg/mL Comparative Compound C, 30 μg/mL Example 16 (1)
Method: (2-3) Intraocular Pressure Lowering Action in Monkey Under Consciousness
To a left eye of a male monkey (crab-eating monkey) under consciousness was ocular instillation-administered 30 μL of a solution obtained by adjusting a test substance using the same base as that described above and, to a right eye was ocular instillation-administered 30 μL of a solution of only a base as a control, respectively. An intraocular pressure after administration was measured with time from administration initiation to after 24 hours. Upon measurement of an intraocular pressure, a crab-eating monkey was fixed on a monkey chair, and the monkey was anesthetized by ocular instillation-administering an ocular surface anesthetic (Benoxil eye drops 0.4% Santen Pharmaceutical Co., Ltd.). After mounting of a blepharostat (Handaya Co., Ltd.), an intraocular pressure of both eyes was measured (5 to 8 examples per group) using a pneumatic applanation flat tonometer (Model 30 Classic, REICHERT). A difference in an intraocular pressure value between control eyes and eyes to which a test substance had been administered, was calculated as an intraocular pressure lowering rate using the following equation, and sustainability of intraocular eye lowering action was assessed using a maximum intraocular pressure lowering rate during measurement and an intraocular pressure lowering rate after 24 hours. […]

T1 sequence (Q62053 whole entry): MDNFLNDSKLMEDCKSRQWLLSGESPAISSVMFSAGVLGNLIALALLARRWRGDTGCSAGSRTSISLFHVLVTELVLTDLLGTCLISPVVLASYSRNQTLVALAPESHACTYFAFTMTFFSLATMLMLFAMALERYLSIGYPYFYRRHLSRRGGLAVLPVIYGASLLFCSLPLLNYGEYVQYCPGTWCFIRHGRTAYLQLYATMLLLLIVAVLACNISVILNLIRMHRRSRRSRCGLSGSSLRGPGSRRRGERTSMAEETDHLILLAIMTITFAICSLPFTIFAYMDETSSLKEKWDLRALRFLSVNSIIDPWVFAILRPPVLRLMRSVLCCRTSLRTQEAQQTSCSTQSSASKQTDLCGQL

| EC50 (mouse EP2 receptor) | EC50 (mouse EP4 receptor) | EC50 (mouse FP receptor) | EC50 (mouse IP receptor) | SMILES | Maximum of intraocular pressure lowering rate (male dog (TOYO Beagle)) | Classification of ocular stimulating property from maximum of the Draize score [1] | Action on protein concentration in aqueous humor [2] | Intraocular pressure lowering rate after 24 hours ([3]; 24 hours) | Maximum intraocular pressure lowering rate [3] |
| --- | --- | --- | --- | --- | --- | --- | --- | --- | --- |
| > 100 µM | 6.1 µM |  |  | O=C(O)CCC[C@H]1CC[C@@H]2[C@@H](/C=C/[C@@H](O)COc3ccccc3)[C@H](O)C[C@@H]2O1 [Comparative Compound A] |  |  |  |  |  |
| 0.022 µM | 0.38 µM | 0.0089 µM | 0.89 µM | CCCCC[C@H](O)/C=C/[C@@H]1[C@H]2CC[C@H](CCCC(=O)O)S[C@H]2C[C@H]1O [Comparative Compound B, 4-{(2S,4aR,5R,6R,7aS)-6-hydroxy-5-[(1E,3S)-3-hydroxy-1-octen-1-yl]octahydrocyclopenta[b]thiopyran-2-yl}butanoic acid, reference compound] |  |  |  |  |  |
| > 100 µM | > 100 µM | 0.0034 µM | 6.1 µM | O=C(O)CCC[C@H]1CC[C@@H]2[C@@H](/C=C/[C@@H](O)COc3ccccc3)[C@H](O)C[C@@H]2S1 [Example 15, 4-{(2S,4aR,5R,6R,7aS)-6-hydroxy-5-[(1E,3R)-3-hydroxy-4-phenoxy-1-buten-1-yl]octahydrocyclopenta[b]thiopyran-2-yl}butanoic acid] |  |  |  |  |  |
|  |  |  |  | CC(C)OC(=O)CCC[C@H]1CC[C@@H]2[C@@H](/C=C/[C@@H](O)COc3ccccc3)[C@H](O)C[C@@H]2S1 [Example 16 (1), 2-Propanyl 4-{(2S,4aR,5R,6R,7aS)-6-hydroxy-5-[(1E,3R)-3-hydroxy-4-phenoxy-1-buten-1-yl]octahydrocyclopenta[b]thiopyran-2-yl}butanoate] | 34.2% | non-stimulating substance (A Draize score of 0 or more and 5 or less was a non-stimulating substance) | no action of raising a protein concentration in an aqueous humor | 23.1 ± 2.7% | 25.3 ± 2.4% |

— patent US9150537B2, “Bicyclic compound and use thereof for medical purposes” (ONO PHARMACEUTICAL CO., LTD., priority 2011, dated 2015)
